Data taken from article PMC8201735 (BMC Pharmacology & Toxicology, 2021).
Like-named read-outs stand apart in the source and are kept apart here.

Legend:
[1] = Body weight; type: in vivo, human; conditions: Placebo + Metformin
Experimental: Body weight measurement was performed at screening and during inpatient Days- 1, 2, 4, 8, 13, and 14.

[2] = test system: subjects with T2DM; assay: Oral glucose tolerance test (75 g): weighted mean plasma glucose and insulin; type: in vivo, human; conditions: Day -1 (baseline); Placebo + Metformin
[3] = test system: subjects with T2DM; assay: Surveillance for lactic acidosis: fasting plasma lactic acid concentration; type: in vivo, human
Experimental: The samples for acidosis analysis were collected at screening (following an overnight fast and prior to morning dose), once during the run-in phase, at baseline (Day- 1), mornings (prior to first dose and breakfast) of Days 1, 2, 3, and 4 (inpatient) and Days 6, 8, and 10 (outpatient) and Days 13 and 14 (inpatient). Subjects were not allowed to do rigorous exercise or physical labor during the treatment phase of the study and instructed to limit exercise 12 h before sampling.
(§1) Descriptive statistics were used to summarize baseline demographics, safety data, and pharmacokinetic parameters. Geometric mean and % CVb (between-subject coefficient of variation) were calculated for all pharmacokinetic parameters except tmax. Comparisons of placebo with each active dose of RE were assessed in terms of change from baseline in fasting plasma lactate acid using repeated measures analysis of covariance model. The model included terms for baseline measurement, visit, treatment and visit-by-treatment interaction. The same model was applied to change from baseline in weighted means of day-time, night-time and 0–24 h of blood pressures. Within group treatment comparison was performed using mixed model on log transformed Cmax and AUC (0-last).

[4] = Fluid balance assessment (intake - urine output); type: in vivo, human; conditions: Placebo + Metformin
[5] = test system: subjects with T2DM; assay: Adverse event monitoring, RE co-administered with metformin for 13 days; type: in vivo, human
Description: The study was comprised of three phases; run-in, randomization, and treatment. […] In treatment phase the patients were considered in two cohorts. […] The adverse events monitoring included recording of any adverse event (AE) and serious adverse event (SAE) reported or observed during the entire study and follow-up period. All the subjects were counseled to inform study staff of any AEs that occurred during the study. Any abnormal laboratory findings (e.g., clinical chemistry, hematology, and urinalysis) or other abnormal assessments (e.g., ECGs, vital signs, physical examination) that were judged by the investigator as clinically significant were recorded as AEs or SAE.

[6] = test system: subjects with T2DM; assay: Oral glucose tolerance test (75 g): weighted mean plasma glucose and insulin; type: in vivo, human; conditions: Placebo + Metformin
Experimental: Oral glucose tolerance testing was performed on Day 1 and Day 13 using a 75 g oral glucose solution. Blood samples for the measurement of insulin and glucose were taken immediately before drug dosing (within 5 min of drug dosing), and at 30 min, 1, 1.5, 2, 3, 4, and 6 h following drug dosing.

[7] = Plasma pharmacokinetics of metformin with and without RE; type: in vivo, human; conditions: for AUC / Cmax: human, plasma, oral, geometric mean; for AUC: Metformin AUC (0-tau); for Cmax: Metformin Cmax
Experimental: as §1, with “PK analysis was conducted by […] (Chapel Hill, NC, USA), under the direction of Clinical Pharmacokinetics/Modelling and Simulation, GSK using the non-compartmental analysis Model 200 (for extra vascular administration) of WinNonlin Professional Edition version 4.1 (Pharsight Corporation, Mountain View, CA). […] Descriptive” for “Descriptive”, “0-24” for “0–24”

[8] = test system: subjects with T2DM; conditions: RE 500 mg BID and metformin 500 mg BID for 3 days; cited from earlier work
[9] = Plasma pharmacokinetics of remogliflozin etabonate and its metabolites during metformin treatment; type: in vivo, human; conditions: for AUC / Cmax / Tmax: human, plasma; for AUC: read-out: AUC(0-tau), geometric mean (%CVb); for Cmax: read-out: Cmax, geometric mean (%CVb)
Experimental: as §1, with “PK analysis was conducted by […] (Chapel Hill, NC, USA), under the direction of Clinical Pharmacokinetics/Modelling and Simulation, GSK using the non-compartmental analysis Model 200 (for extra vascular administration) of WinNonlin Professional Edition version 4.1 (Pharsight Corporation, Mountain View, CA). […] Descriptive” for “Descriptive”, “0-24” for “0–24”

[10] = Placebo BID + metformin, N = 17
[11] = Day 13, Metformin + Placebo group
[12] = Day 13 Metformin + RE 750 mg BID
[13] = Day -1 metformin alone, Metformin + Placebo group
[14] = Day -1 metformin alone, Metformin + RE 500 mg group
[15] = Day 13 Metformin + RE 500 mg BID
[16] = Day -1 metformin alone, Metformin + RE 750 mg group
[17] = oral, 500 mg, Day 1, after RE 500 mg BID + metformin, N = 16
[18] = oral, 500 mg, Day 13, after RE 500 mg BID + metformin, N = 15
[19] = oral, 750 mg, Day 1, after RE 750 mg BID + metformin, N = 17
[20] = oral, 750 mg, Day 13, after RE 750 mg BID + metformin, N = 16

In the case of `CN(C)C(=N)N=C(N)N` [Metformin, metformin, reference compound], the “Change from baseline in body weight, Mean (SD)” value ([1]; Day 2) is reported as −0.70 (0.679) kg, the “Change from baseline in body weight, Mean (SD)” value ([1]; Day 14) is reported as −1.02 (0.845) kg and the “Weighted mean plasma insulin following OGTT, Mean (SD)” value [2] is reported as 176.85(104.735) pmol/L. For the same molecule, the “Fasting plasma lactic acid, maximum on-therapy absolute values, Mean (SD)” value ([3]; Placebo BID + metformin) was 1.554 (0.5094) mmol/L, the “Fasting plasma lactic acid, maximum on-therapy change from baseline, Mean (SD)” value ([3]; Placebo BID + metformin) was 0.460 (0.2289) mmol/L and the “Fasting plasma lactic acid change from baseline, Mean (SD)” value (shortened to “Fasting plasma lactic acid change … (SD)”) ([3]; Study Day 2, Placebo BID + metformin) was 0.16 (0.266) mmol/L. For the same molecule, the “Fasting plasma lactic acid change … (SD)” value ([3]; Study Day 6, Placebo BID + metformin) was 0.08 (0.288) mmol/L, the “Fasting plasma lactic acid change … (SD)” value ([3]; Study Day 13, Placebo BID + metformin) was 0.00 (0.304) mmol/L and the “Subjects with lactic acid greater than the upper limits of normal (ULN) at any time” value ([3]; while receiving metformin alone, not sustained, minimally above ULN) was “four”. For the same molecule, the “Change in fluid balance, Mean (SD)” value ([4]; Day 2) was 203.5 (999.83) ml, the “Change in fluid balance, Mean (SD)” value ([4]; Day 13) was −42.0 (1262.56) ml and the “Any AE” value ([5]; Placebo BID + metformin >=2000 mg/day, 13 days, N = 17) was 3 (18%) N(%). For the same molecule, the Diarrhoea [5, 10] was 1 (6%) N(%), the Dizziness [5, 10] was 0 N(%) and the Dyslipidemia [5, 10] was 0 N(%). For the same molecule, the Supraventricular tachycardia [5, 10] was 0 N(%), the Thirst [5, 10] was 1 (6%) N(%) and the Vomiting [5, 10] was 0 N(%). For the same molecule, the “Subjects with hypoglycemic laboratory events” value ([5]; placebo + metformin group, mild, resolved without intervention) was “one”, the “Weighted mean plasma glucose following OGTT, Mean (SD)” value ([6]; Day 1 (baseline)) was 12.65 (3.306) mmol/L and the “Weighted mean plasma insulin following OGTT, Mean (SD)” value ([6]; Day 13) was 162.97(97.374) pmol/L. The “Weighted mean plasma glucose, change from baseline, Mean (SD)” value [6] was −0.10 (1.572) mmol/L, the “Weighted mean plasma insulin, change from baseline, Mean (SD)” value [6] was −13.88(42.349) pmol/L and the “Metformin Cmax, geometric mean” value [7, 11] was 2041 ng/mL. For the same molecule, the “Metformin tmax, median” value [7, 11] was 2.5 h, the “Metformin Cmax, geometric mean” value [7, 12] was 1695 ng/mL and the “Metformin tmax, median” value [7, 12] was 2.0 h. The “Metformin tmax, median” value [7, 13] was 2.0 h, the “Metformin tmax, median” value [7, 14] was 3.0 h and the AUC [7, 11] was 14000 ng·h/mL. It also gave an AUC [7, 15] of 14700 ng·h/mL, an AUC [7, 12] of 11400 ng·h/mL and an AUC [7, 13] of 12300 ng·h/mL. It also gave an AUC [7, 14] of 13900 ng·h/mL, an AUC [7, 16] of 11300 ng·h/mL and a Cmax [7, 15] of 2170 ng/mL. For the same molecule, the Cmax [7, 13] was 1970 ng/mL, the Cmax [7, 14] was 2160 ng/mL and the Cmax [7, 16] was 1760 ng/mL. The “Effect of metformin on the pharmacokinetics of RE or its metabolites” value [8] was “no effect”.

With `Cc1c(Cc2ccc(OC(C)C)cc2)c(O[C@@H]2O[C@H](CO)[C@@H](O)[C@H](O)[C@H]2O)nn1C(C)C` [Remogliflozin, remogliflozin] the “AUC(0-tau) accumulation ratio Day 13 versus Day 1, point estimate (90% CI)” value ([9]; RE 500 mg + Metformin) was 1.00 (0.907–1.10), the “AUC(0-tau) accumulation ratio Day 13 versus Day 1, point estimate (90% CI)” value ([9]; RE 500 mg + Metformin, listed as remogliflozin) was 1.00 (0.91, 1.10) and the “AUC(0-tau) accumulation ratio Day 13 versus Day 1, point estimate (90% CI)” value ([9]; RE 750 mg + Metformin) was 0.82 (0.755–0.899). The “AUC(0-tau) accumulation ratio Day 13 versus Day 1, point estimate (90% CI)” value ([9]; RE 750 mg + Metformin, listed as remogliflozin) was 0.82 (0.755, 0.899), the AUC [9, 17] was 4890 ng·h/mL and the Cmax [9, 17] was 2000 ng/mL. For the same molecule, the Tmax ([9]; oral, 500 mg, Day 1, after RE 500 mg BID + metformin, N = 16, read-out: tmax, median (range)) was 0.77 h, the AUC [9, 18] was 4930 ng·h/mL and the Cmax [9, 18] was 1490 ng/mL. It also gave a Tmax ([9]; oral, 500 mg, Day 13, after RE 500 mg BID + metformin, N = 15, read-out: tmax, median (range)) of 3 h, a Tmax ([9]; oral, 500 mg, RE 500 mg group, read-out: Time of peak concentrations (range)) of 0.5 to 6 h and an AUC [9, 19] of 8520 ng·h/mL. It also gave a Cmax [9, 19] of 4010 ng/mL, a Tmax ([9]; oral, 750 mg, Day 1, after RE 750 mg BID + metformin, N = 17, read-out: tmax, median (range)) of 0.75 h and an AUC [9, 20] of 7000 ng·h/mL. It also gave a Cmax [9, 20] of 2510 ng/mL, a Tmax ([9]; oral, 750 mg, Day 13, after RE 750 mg BID + metformin, N = 16, read-out: tmax, median (range)) of 1.3 h and a Tmax ([9]; po, after concomitant oral administration of RE with metformin (discussion), read-out: Time of peak concentration (range)) of 0.5 to 4 h.
